Data on twelve compounds can be found in PubChem BioAssay (NCI).

Where “and” joins values, the source holds several entries; their conditions need not be identical. Equal entries are not always repeated.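 Assay format: 96-well plates, 48-hour exposure. GI50: concentration for 50% inhibition of growth. TGI: total growth inhibition.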

Assay in all cases: DTP human tumour cell line panel, 48 h
Experiment [1] concerns TK-10 renal.
Experiment [2] has as its system UACC-62 melanoma.
Experiment [3] deals with DU-145 prostate.
The test system of experiment [4] is KM12 colon.
Experiment [5] deals with HCC-2998 colon.
For experiment [6], the system named is SF-539 CNS.
Experiment [7] concerns MDA-MB-231 breast.
The subject of experiment [8] is IGROV1 ovarian.
Experiment [9] relates to HCT-116 colon.
In experiment [10] the test system is UACC-257 melanoma.

As to `O=C(OCc1ccccc1[N+](=O)[O-])N1c2ccccc2[C@@]23O[C@]24CCC[C@H]3C#C/C=C\C#C[C@H]14`, the TGI in [1], in [2], in [3], in experiment [4], in experiment [5] and in experiment [6] was above 100 µM each time. In addition, the TGI in [7], in experiment [8], in [9] and in [10] was above 100 µM in each case.

As for `Cc1cc(S(=O)(=O)Nc2nc(N)n(-c3ccccc3)n2)c(S)cc1Cl`, the TGI in experiment [1], in experiment [2], in [3], in experiment [4], in [5] and in [6] was above 100 µM in each case. Further, the TGI in [7], in experiment [8], in [9] and in [10] was above 100 µM throughout.

With `NCCCCN(CCCN)C(=O)OCc1ccccc1`, the TGI in experiment [1], in [2], in [3], in [4], in experiment [5] and in experiment [6] was above 100 µM throughout. The TGI in [7], in experiment [8], in [9] and in [10] was above 100 µM in each case.

For `N#CCCN(CCN(CCN(C(=O)Nc1ccccc1)c1ccccc1)C(=O)Nc1ccccc1)C(=O)Nc1ccccc1`, the TGI in experiment [1], in experiment [2], in experiment [3], in experiment [4], in experiment [5] and in experiment [6] was above 100 µM throughout. Moreover, the total growth inhibition concentration (TGI) in experiment [7], in experiment [8], in experiment [9] and in experiment [10] was above 100 µM each time.

For the compound `COC(=O)c1ccc2c(c1)CCN2C(=O)c1cc2c(cc1Br)OCO2`, the GI50 (in general, the concentration at which growth is held to half of that of the control) in [1] is 27.1 µM; in [2], 0.995 µM; in [3] it was 3.02 µM; in experiment [4], 0.532 µM; in experiment [5], 21.2 µM; in [6], 2.93 µM. In addition, the GI50 in [7] is 2 µM; in [8], 0.455 µM; in [9] it was 0.677 µM; in experiment [10], 16.6 µM. Moreover, the TGI (commonly the concentration giving total growth inhibition) was 37.6 µM and > 100 µM in experiment [1]; 50 µM and > 100 µM in experiment [2]; 26.9 µM and > 100 µM in experiment [3]; 50 µM and > 100 µM in experiment [4]; 50 µM and > 100 µM in experiment [7]; 50 µM and > 100 µM in experiment [8]. In addition, the TGI in [10] is 18.8 µM and 75.1 µM.

As to `CCNc1nc2ccccc2nc1NCC`, the TGI in experiment [1], in experiment [2], in experiment [3], in [4], in experiment [5] and in [6] was above 100 µM in each case. Further, the TGI in [7], in experiment [8], in experiment [9] and in experiment [10] was above 100 µM each time.

On to `O=c1[nH]/c(=C/c2cccs2)c(=O)[nH]/c1=C/c1ccc(OCc2ccccc2)cn1`, for which the TGI in experiment [1] stood at 27.4 µM; in experiment [2], 40.3 µM; in [3] it was 5.04 µM; in [4], 26.3 µM; in experiment [5], 0.853 µM; in experiment [6], 12.5 µM. Further, the TGI in experiment [7] is above 48.9 µM; in experiment [8] it was above 100 µM; in [9], above 100 µM; in experiment [10] it was above 75 µM.

Regarding `Brc1ccc2c(c1)[C@H]1CCc3c([nH]c4ccccc34)[C@H]1N2`, the TGI in experiment [1] turned out to be 23.3 µM; in experiment [2], 24 µM; in experiment [3] it was 25.5 µM; in experiment [4], 18.6 µM; in experiment [5], 25.5 µM; in [6], 16.4 µM. In addition, the TGI in experiment [7] amounted to 12.3 µM; in [8] it was 15.6 µM; in experiment [9], 21 µM; in experiment [10] it was 25.6 µM.

In the case of `CCCCc1ccc(Nc2nc(N)c3[nH]cnc3n2)cc1`, the TGI stood at 43.2 µM in experiment [1]; 35.3 µM in experiment [2]; 56.7 µM in experiment [3]; 36.5 µM in experiment [4]; 46.4 µM in experiment [5]; 43.4 µM in experiment [6]. The TGI in experiment [7] came to 39 µM; in [8], 27.9 µM; in experiment [9] it was 32.3 µM; in [10], 47.4 µM.

On to `C(=C/c1ccc2nc(-c3ccc(/C=C/C=N/NC4=NCCCN4)cc3)cn2c1)/C=N/NC1=NCCCN1`, for which the TGI in experiment [1] is above 100 µM; in experiment [2], above 100 µM; in [3], 41.6 µM; in experiment [4], above 100 µM; in experiment [5], above 100 µM; in [6], above 100 µM. For the same compound, the TGI in experiment [7] was 28.5 µM; in experiment [8], above 100 µM; in [9] it was above 100 µM; in experiment [10], above 100 µM.

In the case of `CC(CCC(=O)O)(c1cc(Br)c(O)c(Br)c1)c1cc(Br)c(O)c(Br)c1`, the TGI was above 100 µM in [1]; above 100 µM in [2]; above 100 µM in experiment [3]; above 100 µM in experiment [4]; 86.3 µM in experiment [5]; above 100 µM in experiment [6]. Further, the TGI in experiment [7], in [8], in experiment [9] and in [10] was above 100 µM in each case.

Regarding `O=C1N2CCN=C2c2ccccc2C1(O)c1ccccc1` (configuration not stated), the TGI in experiment [1], in [2], in experiment [3], in experiment [4], in [5] and in experiment [6] was above 100 µM throughout. Further, the concentration for total growth inhibition (TGI) in experiment [7], in experiment [8], in experiment [9] and in [10] was above 100 µM throughout.
